Data reported in patent US9738634B2, “Heterocyclic amide compound and herbicide” (SYNGENTA PARTICIPATIONS AG, priority 2013, dated 2017).

Legend:
Assay type in all cases: in vivo
barnyard grass [1] = assay: Test Example 1: weedkilling efficacy, preemergent weed treatment in the submerged state; A: barnyard grass; settings: treatment dosage 252 g/ha
Summary of the method: (§1)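 Submerged pre-emergence treatment, water-surface application of compound emulsion at g/ha dosages; 4 cm flooded alluvial soil, weeds sown and 2.5-leaf rice transplanted same day. Rated after 3 weeks, greenhouse.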

bulrush [2] = assay: Test Example 1: weedkilling efficacy, preemergent weed treatment in the submerged state; B: bulrush; settings: treatment dosage 252 g/ha
Summary of the method: as §1

oval-leafed pondweed [3] = assay: Test Example 1: weedkilling efficacy, preemergent weed treatment in the submerged state; C: oval-leafed pondweed; settings: treatment dosage 252 g/ha
Summary of the method: as §1

transplanted rice = assay: Test Example 1: preemergent weed treatment in the submerged state, effect on crop; a: transplanted rice; settings: treatment dosage 252 g/ha
Summary of the method: as §1

barnyard grass [4] = assay: Test Example 2: weedkilling efficacy, growth period weed treatment in the submerged state; A: barnyard grass; settings: treatment dosage 252 g/ha
Summary of the method: (§2)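 Seedlings at 1-2 leaves in 4 cm-deep submerged alluvial soil received emulsion formulations on the water surface, dosed per hectare; effects were judged 3 weeks on.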

bulrush [5] = assay: Test Example 2: weedkilling efficacy, growth period weed treatment in the submerged state; B: bulrush; settings: treatment dosage 252 g/ha
Summary of the method: as §2

oval-leafed pondweed [6] = assay: Test Example 2: weedkilling efficacy, growth period weed treatment in the submerged state; C: oval-leafed pondweed; settings: treatment dosage 252 g/ha
Summary of the method: as §2

crabgrass = assay: Test Example 3: weedkilling efficacy through soil treatment; D: crabgrass; settings: soil treatment, treatment dosage 315 g/ha
Summary of the method: (§3)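 Crop and weed responses were judged three weeks after a uniform surface spray of the water-diluted emulsion at the given g/ha rate. Seeds sat beneath about 1.5 cm of sterilized diluvial soil, and boxes stood in a greenhouse at 25 to 30° C.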

green foxtail = assay: Test Example 3: weedkilling efficacy through soil treatment; E: green foxtail; settings: soil treatment, treatment dosage 315 g/ha
Summary of the method: as §3

wild oat = assay: Test Example 3: weedkilling efficacy through soil treatment; G: wild oat; settings: soil treatment, treatment dosage 315 g/ha
Summary of the method: as §3

black-grass = assay: Test Example 3: weedkilling efficacy through soil treatment; H: black-grass; settings: soil treatment, treatment dosage 315 g/ha
Summary of the method: as §3

Italian ryegrass = assay: Test Example 3: weedkilling efficacy through soil treatment; I: Italian ryegrass; settings: soil treatment, treatment dosage 315 g/ha
Summary of the method: as §3

Indian mallow = assay: Test Example 3: weedkilling efficacy through soil treatment; K: Indian mallow; settings: soil treatment, treatment dosage 315 g/ha
Summary of the method: as §3

redroot pigweed = assay: Test Example 3: weedkilling efficacy through soil treatment; L: redroot pigweed; settings: soil treatment, treatment dosage 315 g/ha
Summary of the method: as §3

fig-leafed goosefoot = assay: Test Example 3: weedkilling efficacy through soil treatment; M: fig-leafed goosefoot; settings: soil treatment, treatment dosage 315 g/ha
Summary of the method: as §3

chickweed = assay: Test Example 3: weedkilling efficacy through soil treatment; N: chickweed; settings: soil treatment, treatment dosage 315 g/ha
Summary of the method: as §3

catchweed = assay: Test Example 3: weedkilling efficacy through soil treatment; O: catchweed; settings: soil treatment, treatment dosage 315 g/ha
Excerpt: (§4) Weedkilling Efficacy Test Through Soil Treatment
(§5) Sterilized diluvial soil was introduced into 21 cm long, 13 cm wide, 7 cm deep plastic boxes, and seeds of crabgrass, green foxtail, barnyard grass, wild oat, black-grass, Italian ryegrass, common wind-grass, Indian mallow, redroot pigweed, fig-leafed goosefoot, chickweed, catchweed, birds-eye speedwell, corn, soybean, rice, wheat, beet and rapeseed were each spot-sown, and covered with about 1.5 cm of soil. Next, emulsions of compounds of the present invention prepared according to compounding example 2 were diluted with water to give the specified dosages, and applied uniformly onto the soil surface with a small sprayer. The plants were grown by placing the plastic boxes in a greenhouse at 25 to 30° C., and 3 weeks after the pesticide treatment the effect on each type of plant was investigated on the basis of the assessment criteria of test example 1.
(§6) A: barnyard grass, B: bulrush, C: oval-leafed pondweed, D: crabgrass, E: green foxtail, F: barnyard grass, G: wild oat, H: black-grass, I: Italian ryegrass, J: common wind-grass, K: Indian mallow, L: redroot pigweed, M: fig-leafed goosefoot, N: chickweed, O: catchweed, p: birds-eye speedwell, a: transplanted rice, b: directly sown rice, c: corn, d: soybean, e: wheat, f: beet, g: rapeseed
(§7) Further, pesticide dosage (g/ha) indicates the concentration regulated such that treatment was with only the stated number of grams (g), when calculated per hectare (ha).

birds-eye speedwell = assay: Test Example 3: weedkilling efficacy through soil treatment; p: birds-eye speedwell; settings: soil treatment, treatment dosage 315 g/ha
Excerpt: as §4, §5, §6, §7

directly sown rice = assay: Test Example 3: soil treatment, effect on crop; b: directly sown rice; settings: soil treatment, treatment dosage 315 g/ha
Summary of the method: as §3

corn = assay: Test Example 3: soil treatment, effect on crop; c: corn; settings: soil treatment, treatment dosage 315 g/ha
Summary of the method: as §3

soybean = assay: Test Example 3: soil treatment, effect on crop; d: soybean; settings: soil treatment, treatment dosage 315 g/ha
Summary of the method: as §3

wheat = assay: Test Example 3: soil treatment, effect on crop; e: wheat; settings: soil treatment, treatment dosage 315 g/ha
Summary of the method: as §3

beet = assay: Test Example 3: soil treatment, effect on crop; f: beet; settings: soil treatment, treatment dosage 315 g/ha
Summary of the method: as §3

Compound	A: barnyard grass, weed kill grade (barnyard grass [1])	B: bulrush, weed kill grade (bulrush [2])	C: oval-leafed pondweed, weed kill grade (oval-leafed pondweed [3])	a: transplanted rice, effect on crop grade (transplanted rice)	A (barnyard grass) weedkilling efficacy grade (barnyard grass [4])	B (bulrush) weedkilling efficacy grade (bulrush [5])	C (oval-leafed pondweed) weedkilling efficacy grade (oval-leafed pondweed [6])	D: crabgrass, weedkilling efficacy grade (crabgrass)	E: green foxtail, weedkilling efficacy grade (green foxtail)	G: wild oat, weedkilling efficacy grade (wild oat)	H: black-grass, weedkilling efficacy grade (black-grass)	I: Italian ryegrass, weedkilling efficacy grade (Italian ryegrass)	K: Indian mallow, weedkilling efficacy grade (Indian mallow)	L: redroot pigweed, weedkilling efficacy grade (redroot pigweed)	M: fig-leafed goosefoot, weedkilling efficacy grade (fig-leafed goosefoot)	N: chickweed, weedkilling efficacy grade (chickweed)	P: birds-eye speedwell, weedkilling efficacy grade (birds-eye speedwell)	b: directly sown rice, effect on crop grade (directly sown rice)	c: corn, effect on crop grade (corn)	d: soybean, effect on crop grade (soybean)	also measured
CC(C)(C(=O)Nc1cccc(I)n1)N1COCN(c2ccccc2)C1=O [A-2-11]	5 (weed kill ratio 90% or more, (practically complete withering))	5 (weed kill ratio 90% or more, (practically complete withering))	5 (weed kill ratio 90% or more, (practically complete withering))	0 (weed kill ratio 5% or less (practically no effect))	4 (weed kill ratio 70% or more, less than 90%)	5 (weed kill ratio 90% or more, (practically complete withering))	3 (weed kill ratio 40% or more, less than 70%)	5 (weed kill ratio 90% or more, (practically complete withering))	5 (weed kill ratio 90% or more, (practically complete withering))	2 (weed kill ratio 20% or more, less than 40%)	5 (weed kill ratio 90% or more, (practically complete withering))	5 (weed kill ratio 90% or more, (practically complete withering))	0 (weed kill ratio 5% or less (practically no effect))	0 (weed kill ratio 5% or less (practically no effect))	3 (weed kill ratio 40% or more, less than 70%)	4 (weed kill ratio 70% or more, less than 90%)	4 (weed kill ratio 70% or more, less than 90%)	3 (weed kill ratio 40% or more, less than 70%)	0 (weed kill ratio 5% or less (practically no effect))	0 (weed kill ratio 5% or less (practically no effect))	O: catchweed, weedkilling efficacy grade (catchweed): 2 (weed kill ratio 20% or more, less than 40%); e: wheat, effect on crop grade (wheat): 1 (weed kill ratio 5% or more, less than 20%); f: beet, effect on crop grade (beet): 2 (weed kill ratio 20% or more, less than 40%)
CC(C)(C(=O)Nc1cc(F)ccn1)N1COCN(c2ccccc2)C1=O [A-2-03]	5 (weed kill ratio 90% or more, (practically complete withering))	5 (weed kill ratio 90% or more, (practically complete withering))	5 (weed kill ratio 90% or more, (practically complete withering))	1 (weed kill ratio 5% or more, less than 20%)	5 (weed kill ratio 90% or more, (practically complete withering))	5 (weed kill ratio 90% or more, (practically complete withering))	3 (weed kill ratio 40% or more, less than 70%)	5 (weed kill ratio 90% or more, (practically complete withering))	5 (weed kill ratio 90% or more, (practically complete withering))	5 (weed kill ratio 90% or more, (practically complete withering))	5 (weed kill ratio 90% or more, (practically complete withering))	5 (weed kill ratio 90% or more, (practically complete withering))	0 (weed kill ratio 5% or less (practically no effect))	4 (weed kill ratio 70% or more, less than 90%)	4 (weed kill ratio 70% or more, less than 90%)	4 (weed kill ratio 70% or more, less than 90%)	5 (weed kill ratio 90% or more, (practically complete withering))	5 (weed kill ratio 90% or more, (practically complete withering))	3 (weed kill ratio 40% or more, less than 70%)	0 (weed kill ratio 5% or less (practically no effect))	O: catchweed, weedkilling efficacy grade (catchweed): 5 (weed kill ratio 90% or more, (practically complete withering)); e: wheat, effect on crop grade (wheat): 2 (weed kill ratio 20% or more, less than 40%); f: beet, effect on crop grade (beet): 0 (weed kill ratio 5% or less (practically no effect))
Cc1csc(NC(=O)C(C)(C)N2COCN(c3ccccc3)C2=O)n1 [A-1-05]	5 (weed kill ratio 90% or more, (practically complete withering))	5 (weed kill ratio 90% or more, (practically complete withering))	5 (weed kill ratio 90% or more, (practically complete withering))	0 (weed kill ratio 5% or less (practically no effect))	3 (weed kill ratio 40% or more, less than 70%)	5 (weed kill ratio 90% or more, (practically complete withering))	3 (weed kill ratio 40% or more, less than 70%)	5 (weed kill ratio 90% or more, (practically complete withering))	5 (weed kill ratio 90% or more, (practically complete withering))	4 (weed kill ratio 70% or more, less than 90%)	5 (weed kill ratio 90% or more, (practically complete withering))	5 (weed kill ratio 90% or more, (practically complete withering))	4 (weed kill ratio 70% or more, less than 90%)	5 (weed kill ratio 90% or more, (practically complete withering))	3 (weed kill ratio 40% or more, less than 70%)	4 (weed kill ratio 70% or more, less than 90%)	5 (weed kill ratio 90% or more, (practically complete withering))	5 (weed kill ratio 90% or more, (practically complete withering))	1 (weed kill ratio 5% or more, less than 20%)	0 (weed kill ratio 5% or less (practically no effect))	e: wheat, effect on crop grade (wheat): 0 (weed kill ratio 5% or less (practically no effect)); f: beet, effect on crop grade (beet): 3 (weed kill ratio 40% or more, less than 70%)
